Measurements taken from patent publication US8569372B2, “Method for preventing or treating a disease, disorder or condition induced by retina ischemia” (priority 2011, dated 2013).

How the values were obtained:
[1] = tested on: non-ischaemic (normal) eye; experiment: Flash ERG b-wave of the non-ischaemic (normal) eye given SAC (adverse effects); type: in vivo, Wistar rats; conditions: 100 μM SAC, n=3
Description: Drug administration involved the pre-administration (15-minute before 60-minute HIOP induced retinal ischaemia) of SAC (25, 50, 100 μM) or vehicle (saline; control). The ischemic eye of each test rat was treated with or without a single intravitreous injection of 5 μl of the test compound. In addition, SAC (100 μM) was administered to the non-ischaemic eye (normal) to see whether SAC has any adverse effects. In both cases, the paired normal eye was untreated.
Flash ERG recordings were performed on all rats before retinal ischaemia (day 0), as well as at 1, 3, 5, and 7 days after ischaemia and treatment with or without the defined chemicals. The animals were dark adapted and anaesthetized to do this. A strobe was placed 2 cm in front of the animal to provide a stimulus of 0.5 Hz. Fifteen consecutive responses were recorded at two-second intervals and at 10 kHz; the responses were amplified and averaged using an amplifier P511/regulated power supply RPS 107/stimulator PS22 (Grass-Telefactor; Astro-Med Inc., West Warwick, R.I., USA). For comparative purposes, the b-wave ratio, namely the b-wave amplitude of the ischaemic/sham-operation eye or the untreated/SAC-treated non-ischaemic (normal) eye as compared with that of the contralateral normal eye, was calculated.

[2] = tested on: VEGF mRNA; experiment: Real-time PCR of retinal mRNA after ischaemia/reperfusion: VEGF; type: in vivo, Wistar rats; conditions: 100 μM SAC pre-treatment, 24 hours after I/R; control 0.36±0.07, vehicle 1.10±0.20; n=6
Description: The rats (200-250 g) were anaesthetized and placed in a stereotaxic frame. The anterior chamber of one eye was cannulated with a 30-gauge needle connected to a 0.9% saline reservoir; this caused a high IOP (HIOP) of 120 mmHg for 60 minutes. Eye fundus whitening and a low ERG response confirmed induction of an ischaemic insult. A sham procedure was carried out on the controls. Drug administration involved the pre-administration (15-minute before 60-minute HIOP induced retinal ischaemia) of SAC (25, 50, 100 μM) or vehicle (saline; control). The ischemic eye of each test rat was treated with or without a single intravitreous injection of 5 μl of the test compound. […] The levels of Thy-1, HIF-1 Alpha, VEGF and MMP-9 mRNAs present in the retinas were determined using a real-time PCR technique. […] Relative quantification (a comparative method) was performed using the house keeping gene Beta-actin as the internal standard. This process allows the normalized quantification of the mRNA target (Ct) and takes into account the differences in the amount of total RNA added to each reaction (ΔCt). The relative HIF-1 Alpha/VEGF/MMP-9 expression changes were calculated as fold changes relative to the control with respect to the calibrator (ΔΔCt), which was represented by the control retina. […] The data obtained for each treatment were pooled, and a total percentage change relative to the control was calculated. […]

C=CCSC[C@H](N)C(=O)O [SAC, S-allyl L-cysteine]
b-wave amplitude (ratio) of the non-ischemic (normal) eye vs. the fellow normal eye ([1]; day 0): 1.11±0.05
b-wave amplitude (ratio) of the non-ischemic (normal) eye vs. the fellow normal eye ([1]; day 1): 1.05±0.06
b-wave amplitude (ratio) of the non-ischemic (normal) eye vs. the fellow normal eye ([1]; day 5): 1.06±0.12
b-wave amplitude (ratio) of the non-ischemic (normal) eye vs. the fellow normal eye ([1]; day 7): 0.91±0.09
adverse effect on the b-wave amplitude (ratio) of the non-ischemic (normal) eye ([1]; days 0 to 7): no significant adverse effect
VEGF mRNA ratio in the retina [2]: 0.50±0.06
